Target: T1, chicken gizzard smooth muscle myosin subfragment-1 chemically crosslinked to cardiac or skeletal actin (Gallus gallus, UniProt P10587)
T1 construct: chicken gizzard smooth muscle myosin subfragment-1; from tissue; host or cells: chicken gizzard
Experiment: Smooth muscle myosin ATPase dose response assay (pyruvate kinase/horseradish peroxidase/pyruvate oxidase-coupled, amplex red fluorescence)
Type: biochemical
Details: read-out: IC50 Arithmetic Mean
How it was run: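 ATPase monitored by amplex red fluorescence (ex 480/em 615 nm) via pyruvate oxidase/HRP coupling, pH 7.00, ATP 0.15 mM. Enzyme: smooth muscle S1-actin crosslinked conjugate, amount set empirically by titration. Dose-response fitted with 4-parameter Hill equation for IC50.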

T1 sequence (P02607 2-151): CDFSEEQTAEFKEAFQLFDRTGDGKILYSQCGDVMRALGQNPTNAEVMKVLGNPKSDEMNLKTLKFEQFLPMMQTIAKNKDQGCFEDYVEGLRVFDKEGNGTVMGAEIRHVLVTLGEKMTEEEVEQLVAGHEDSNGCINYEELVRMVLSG
T1 sequence (P10587 84-789): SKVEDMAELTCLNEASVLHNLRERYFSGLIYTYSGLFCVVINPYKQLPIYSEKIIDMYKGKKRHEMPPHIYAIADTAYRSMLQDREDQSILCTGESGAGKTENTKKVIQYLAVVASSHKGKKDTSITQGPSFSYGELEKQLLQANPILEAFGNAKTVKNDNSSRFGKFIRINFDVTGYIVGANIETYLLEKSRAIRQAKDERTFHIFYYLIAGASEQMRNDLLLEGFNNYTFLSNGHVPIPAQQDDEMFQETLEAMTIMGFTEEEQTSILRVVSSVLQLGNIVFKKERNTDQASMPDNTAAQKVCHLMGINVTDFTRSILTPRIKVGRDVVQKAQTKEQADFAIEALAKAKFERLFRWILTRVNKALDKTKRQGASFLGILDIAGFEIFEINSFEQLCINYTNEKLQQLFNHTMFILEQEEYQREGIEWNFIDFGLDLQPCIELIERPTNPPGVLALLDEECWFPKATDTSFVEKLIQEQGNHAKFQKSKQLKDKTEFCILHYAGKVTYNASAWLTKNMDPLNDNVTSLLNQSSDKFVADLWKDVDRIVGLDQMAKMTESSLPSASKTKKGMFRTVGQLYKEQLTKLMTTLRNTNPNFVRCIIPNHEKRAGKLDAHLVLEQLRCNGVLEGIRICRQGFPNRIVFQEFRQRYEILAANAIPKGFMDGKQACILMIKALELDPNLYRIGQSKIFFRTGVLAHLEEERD

| IC50 [nM] | SMILES |
| --- | --- |
| 1610 | O=C(NCc1cccnc1)c1ccc(-c2ccccc2)nc1NCCc1ccc(F)cc1 [(2-{[2-(4-fluorophenyl)ethyl]amino}-6-phenyl(3-pyridyl))-N-(3-pyridylmethyl)carboxamide] |
| 83 | N#Cc1ccccc1-c1ccc(C(=O)NC[C@H]2CCN2C(=O)[C@H](N)CO)c(NCCc2cccc(F)c2)n1 [N-{[(2R)-1-((2R)-2-amino-3-hydroxypropanoyl)azetidin-2-yl]methyl}(6-(2-cyanophenyl)-2-{[2-(3-fluorophenyl)ethyl]amino}(3-pyridyl))carboxamide] |
| 2000 | COc1ccc(Cl)c(-c2ccc(C(=O)NCc3cccnc3)c(NCCc3cccc(F)c3)n2)c1 [(6-(2-chloro-5-methoxyphenyl)-2-{[2-(3-fluorophenyl)ethyl]amino}(3-pyridyl))-N-(3-pyridylmethyl)carboxamide] |
| 193 | COC[C@H](N)C(=O)N1CCC[C@@H]1CNC(=O)c1ccc(-c2ccccc2C#N)nc1NCCc1cccc(F)c1 [N-{[(2R)-1-((2S)-2-amino-3-methoxypropanoyl)pyrrolidin-2-yl]methyl}(6-(2-cyanophenyl)-2-{[2-(3-fluorophenyl)ethyl]amino}(3-pyridyl))carboxamide] |
| 98 | O=Cc1cc(-c2ccc(C(=O)NCc3cccnc3)c(NCCc3cccc(F)c3)n2)cs1 [(2-{[2-(3-fluorophenyl)ethyl]amino}-6-(5-formyl(3-thienyl))(3-pyridyl))-N-(3-pyridylmethyl)carboxamide] |
| 1210 | O=C(NCc1cccnc1)c1ccc(-c2ccc(F)c(F)c2)nc1NCCc1ccccn1 [{6-(3,4-difluorophenyl)-2-[(2-(2-pyridyl)ethyl)amino](3-pyridyl)}-N-(3-pyridylmethyl)carboxamide] |
| 71000 | O=C(NCc1ccc(-c2ccccc2)nc1NCCc1cccc(F)c1)Nc1cccnc1 [N-[(2-{[2-(3-fluorophenyl)ethyl]amino}-6-phenyl(3-pyridyl))methyl](3-pyridylamino)carboxamide] |
| 2650 | N#Cc1ccccc1-c1nc(NCCc2cccc(F)c2)c(C(=O)NCc2cccnc2)cc1Br [(5-bromo-6-(2-cyanophenyl)-2-{[2-(3-fluorophenyl)ethyl]amino}(3-pyridyl))-N-(3-pyridylmethyl)carboxamide] |
| 559 | O=C(NC[C@H]1CCN1C(=O)CO)c1ccc(-c2cn[nH]c2)nc1NCCc1cccc(F)c1 [N-{[(2R)-1-(2-hydroxyacetyl)azetidin-2-yl]methyl}(2-{[2-(3-fluorophenyl)ethyl]amino}-6-pyrazol-4-yl(3-pyridyl))carboxamide] |
| 24 | N#Cc1ccccc1-c1ccc(C(=O)NCc2cccnc2)c(NCCc2cccc(F)c2)n1 [(6-(2-cyanophenyl)-2-{[2-(3-fluorophenyl)ethyl]amino}(3-pyridyl))-N-(3-pyridylmethyl)carboxamide] |
| 23 | Cn1cc(-c2nc(NCCc3cccc(F)c3)c(C(=O)NCc3cccnc3)cc2Br)cn1 [(5-bromo-2-{[2-(3-fluorophenyl)ethyl]amino}-6-(1-methylpyrazol-4-yl)(3-pyridyl))-N-(3-pyridylmethyl)carboxamide] |
| 623 | N#Cc1ccccc1-c1ccc(C(=O)NC[C@H]2CN(CCN)CC(=O)N2)c(NCCc2cccc(F)c2)n1 [N-{[(2S)-4-(2-aminoethyl)-6-oxopiperazin-2-yl]methyl}(6-(2-cyanophenyl)-2-{[2-(3-fluorophenyl)ethyl]amino}(3-pyridyl))carboxamide] |
| 586 | O=C(NCc1cccnc1)c1ccc(-c2ccc(O)cc2)nc1NCCc1ccccn1 [{6-(4-hydroxyphenyl)-2-[(2-(2-pyridyl)ethyl)amino](3-pyridyl)}-N-(3-pyridylmethyl)carboxamide] |
| 60 | N#Cc1ccccc1-c1ccc(C(=O)NC[C@H]2CCN2C(=O)CCCO)c(NCCc2cccc(F)c2)n1 [N-{[(2R)-1-(4-hydroxybutanoyl)azetidin-2-yl]methyl}(6-(2-cyanophenyl)-2-{[2-(3-fluorophenyl)ethyl]amino}(3-pyridyl))carboxamide] |
| 16200 | N#Cc1ccccc1-c1ccc(C(=O)NCCN2CCNCC2)c(NCCc2cccc(F)c2)n1 [(6-(2-cyanophenyl)-2-{[2-(3-fluorophenyl)ethyl]amino}(3-pyridyl))-N-(2-piperazinylethyl)carboxamide] |
| 83 | N#Cc1ccccc1-c1ccc(C(=O)NC[C@H]2CCCCN2C(=O)CCCN)c(NCCc2cccc(F)c2)n1 [N-{[(2R)-1-(4-aminobutanoyl)(2-piperidyl)]methyl}(6-(2-cyanophenyl)-2-{[2-(3-fluorophenyl)ethyl]amino}(3-pyridyl))carboxamide] |
| 1260 | N#Cc1ccccc1-c1ccc(C(=O)NCCNC(=O)CCCN)c(NCCc2cccc(F)c2)n1 [4-amino-N-{2-[(6-(2-cyanophenyl)-2-{[2-(3-fluorophenyl)ethyl]amino}(3-pyridyl))carbonylamino]ethyl}butanamide] |
| 816 | N#Cc1ccccc1-c1ccc(C(=O)N[C@@H](CN)C(N)=O)c(NCCc2cccc(F)c2)n1 [N-((1S)-2-amino-1-carbamoylethyl)(6-(2-cyanophenyl)-2-{[2-(3-fluorophenyl)ethyl]amino}(3-pyridyl))carboxamide] |
| 283 | CC(O)[C@H](C)CNC(=O)c1cc(F)c(-c2cnn(C)c2)nc1NCCc1cccc(F)c1 (stereo partly drawn) [N-((2R)-3-hydroxy-2-methylbutyl)(5-fluoro-2-{[2-(3-fluorophenyl)ethyl]amino}-6-(1-methylpyrazol-4-yl)(3-pyridyl))carboxamide] |
| 1380 | O=C(NCc1cccnc1)c1ccc(-c2ccc(F)cc2Cl)nc1NCCc1cccc(F)c1 [(6-(2-chloro-4-fluorophenyl)-2-{[2-(3-fluorophenyl)ethyl]amino}(3-pyridyl))-N-(3-pyridylmethyl)carboxamide] |
| 9770 | O=C(NCc1cccnc1)c1ccc(-c2ccccc2)nc1NCCc1c[nH]cn1 [{2-[(2-imidazol-4-ylethyl)amino]-6-phenyl(3-pyridyl)}-N-(3-pyridylmethyl)carboxamide] |
| 296 | N#Cc1ccccc1-c1ccc(C(=O)NCc2ccn(CCN)n2)c(NCCc2cccc(F)c2)n1 [N-{[1-(2-aminoethyl)pyrazol-3-yl]methyl}(6-(2-cyanophenyl)-2-{[2-(3-fluorophenyl)ethyl]amino}(3-pyridyl))carboxamide] |
| 1080 | N#Cc1ccccc1-c1ccc(C(=O)NCCO)c(NCCc2cccc(F)c2)n1 [(6-(2-cyanophenyl)-2-{[2-(3-fluorophenyl)ethyl]amino}(3-pyridyl))-N-(2-hydroxyethyl)carboxamide] |
| 18 | O=C(NCc1cccnc1)c1cc(F)c(-c2cn[nH]c2)nc1NCCc1cccc(F)c1 [(5-fluoro-2-{[2-(3-fluorophenyl)ethyl]amino}-6-pyrazol-4-yl(3-pyridyl))-N-(3-pyridylmethyl)carboxamide] |

| SMILES | IC50 [nM] |
| --- | --- |
| Cc1cc(C(=O)NCc2cccnc2CNC(=O)OC(C)(C)C)c(NCCc2cccc(F)c2)nc1-c1ccccc1C#N [N-[(2-{[(tert-butoxy)carbonylamino]methyl}(3-pyridyl))methyl](6-(2-cyanophenyl)-2-{[2-(3-fluorophenyl)ethyl]amino}-5-methyl(3-pyridyl))carboxamide] | 4250 |
| CC(C)(C)OC(=O)NCCC(=O)N1CCC[C@@H]1CNC(=O)c1cc(F)c(-c2ccccc2C#N)nc1NCCc1cccc(F)c1 [N-[((2R)-1-{3-[(tert-butoxy)carbonylamino]propanoyl}pyrrolidin-2-yl)methyl](6-(2-cyanophenyl)-5-fluoro-2-{[2-(3-fluorophenyl)ethyl]amino}(3-pyridyl))carboxamide] | 2770 |
